Test results reported in patent US20090054507A1, “CONTROL OF MALIGNANT CELLS BY KINASE INHIBITION” (CLEVELAND STATE UNIVERSITY, priority 2006, published 2009).

Assays:
[1] = system: SW-480 xenografts; assay: In vivo therapy of SW-480 xenografts, tumor volume; design: species or system mice
Description: (§1) Creation of the xenografts MCF-7, SW-480 and WM-164. Immunodeficient male and female athymic nude nu/nu mice were used, provided and housed by Dr. Lindner, DJ from Taussig Cancer Center, Cleveland Clinic and Case Western Reserve University. Mice were checked every day. Mice were housed in filtered air flow cabinets with autoclaved bedding at a density of 5 mice/cage. They were fed autoclaved Purina Lab Rodent Chow® 5010 and HCl-acidified distilled water ad libitum and were placed in rooms with controlled temperature, humidity and 12-hr light-dark cycles. Procedures involving animals and their care were conducted in conformity with the institutional guidelines that are in compliance with national and international laws and policies (EEC Council Directive 86/609, OJL 358, Dec. 1, 1987, and the National Institutes of Health Guide for the Care and Use of Laboratory, Animals, NIH Publication 85-23, 1985).
(§2) For engraftment, cells in cell culture media were injected. […] Cells were counted with a hemacytometer using Trypan blue (only live cells were counted). […]
In vivo therapy with DMAT of SW-480 xenografts. […] Tumor diameters were measured using a caliper and tumor volume was calculated using the prolate-spheroid formula. […]

[2] = system: WM-164 xenografts; assay: In vivo therapy of WM-164 xenografts, tumor volume; design: species or system mice
Description: as §1, §2
In vivo therapy with DMAT of WM-164 xenografts. […] Tumor diameters were measured using a caliper and tumor volume was calculated using the prolate-spheroid formula. […]

[3] = 25 mg/kg twice daily, injections in mice; cited from earlier work
[4] = small tumors remained at the end of the treatment

CN(C)c1nc2c(Br)c(Br)c(Br)c(Br)c2[nH]1 [DMAT, 2-dimethylamino-4,5,6,7-tetrabromo-1H-benzimidazole]
tumor volume ([1]; DMAT 40 mg/kg (in DMSO) per day, thirteen days, control about 260 to about 1800 mm^3): only a minor increase in tumor volume
response of xenograft tumors to treatment (summary) [1, 4]: significant reduction in tumor volume
tumor volume ([2]; DMAT 10 mg/kg (in DMSO) per day, fourteen days, control about 50 to about 1000 mm^3): only a slight increase in tumor volume
response of xenograft tumors to treatment (summary) [2, 4]: significant reduction in tumor volume
effect on the kidney, bone marrow, and liver as assessed histologically [3]: had no effect
